Test results published in paper PMC11324046, “Second-generation piperazine derivatives as promising radiation countermeasures” (RSC Medicinal Chemistry, 2024).
Where two headings read alike, the source gives them in different places.

Columns and labels:
[1] = WST-1 proliferation assay, HT-29; format: cell-based; conditions: human, HT-29 cells (colorectal adenocarcinoma), vs 0.1% DMSO control = 100%, mean ± standard deviation
Description: (§1) A thorough analysis of antiproliferative activity was performed across various cell culture types representing different histotypes: leukemia (Jurkat, MOLT-4), lung adenocarcinoma (A549), colorectal adenocarcinoma (HT-29), pancreatic carcinoma (PANC-1), breast adenocarcinoma (MCF-7), osteosarcoma (SAOS-2), and one non-cancerous cell line (fetal lung fibroblasts MRC-5). The cell lines were exposed to the newly synthesized compounds at a concentration of 100 μM for 48 h in a single-dose treatment. Changes in cell proliferation compared to the vehicle 0.1% dimethyl sulfoxide (DMSO) control were determined using the WST-1 assay, which is based on mitochondrial dehydrogenase metabolic activities. […] The overall cytotoxic activity of each compound was expressed as growth percent (GP) – the mean of the proliferation of all cell lines treated with the same compound.
(§2) Selected human tumor and non-tumor cell lines Jurkat (acute T-cell leukemia), MOLT-4 (acute lymphoblastic leukemia), A549 (lung carcinoma), HT-29 (colorectal adenocarcinoma), PANC-1 (pancreas epithelioid carcinoma), MCF-7 (breast adenocarcinoma), SAOS-2 (osteosarcoma) and MRC-5 (normal lung fibroblasts) were purchased from either American Type Culture Collection (ATCC; VA, USA) or Sigma-Aldrich (St. Louis, MO, USA) and cultured according to the provider's culture method guidelines. All cell lines were maintained at 37 °C in a humidified 5% carbon dioxide and 95% air incubator. Cells in the maximum range of either 10 passages for the adherent cell lines (A549, HT-29, PANC-1, MCF-7, SAOS-2, and MRC-5), or 20 passages for suspension cell lines (Jurkat, MOLT-4,) and in an exponential growth phase were used for this study. Screening of the antiproliferative effect and growth percent calculation were conducted as follows: each cell line was seeded at previously established optimal density (1–50 × 10^3 cells per well) in a 96-well plate (TPP, Trasadingen, Switzerland) and cells were allowed to settle overnight. Cells were treated for 48 h with compounds at a final concentration of 100 μM. At the end of the cultivation period, the WST-1 proliferation assay (Roche, Basel, Switzerland) was performed according to the manufacturer's protocol. The absorbance was measured at 440 nm using a Tecan Spark multimode microplate reader (Tecan, Mannedorf, Switzerland). Each value is the mean of three independent experiments and represents the percentage of proliferation (100% cell proliferation for 0.1% DMSO mock-treated control cells). The GP value was calculated for each compound tested. GP represents the mean of the percentage proliferation decrease of all cell lines treated with the same compound.

[2] = WST-1 proliferation assay, A549; format: cell-based; conditions: human, A549 cells (lung carcinoma), vs 0.1% DMSO control = 100%, mean ± standard deviation
Description: as §1, §2

MOLT-4 cells = test: Annexin V/PI flow cytometry viability of irradiated MOLT-4 cells; format: cell-based, human; conditions: 2 Gy; for viability at 100 µM / viability at 200 µM: Homo sapiens, 2 h pretreatment, 24 h
Description: Consequently, we investigated whether the pre-application of these substances can augment the survival of MOLT-4 cells after irradiation exposure. The radioprotective investigation utilized a leukemia MOLT-4 cell model of hematopoietic origin with flow cytometric quantification of cell viability via annexin V/propidium iodide staining.
In the following step, at 24 h after irradiation, MOLT-4 cell viability and cell death were determined by flow cytometry using an Alexa Fluor® 488 annexin V/Dead Cell Apoptosis kit (Life Technologies, Grand Island, NY, USA) following the manufacturer's instructions. The Alexa Fluor®488 annexin V/Dead Cell Apoptosis kit employs the property of Alexa Fluor®488 conjugated to annexin V to bind to phosphatidylserine in the presence of Ca^2+; and the ability of propidium iodide to enter cells with damaged cell membranes and bind to DNA. For each sample, a minimum of 20 000 events were acquired using a CytoFLEX LX flow cytometer (Beckman Coulter, Miami, FL, USA). List mode data were analyzed using Kaluza Analysis 2.1 software (Beckman Coulter, Miami, FL, USA).

[3] = WST-1 proliferation assay, Jurkat; format: cell-based; conditions: human, Jurkat cells (acute T-cell leukemia), vs 0.1% DMSO control = 100%, mean ± standard deviation
Description: as §1, §2

in vitro = conditions: male, human
Description: To represent the overall inhibitory activity of each compound, viability was calculated as the mean of at least three independent measurements. The purpose was to determine the optimal non-toxic concentration for subsequent use in radioprotection tests.
Whole blood from a healthy donor was diluted 1 : 1 with Dulbecco's phosphate buffered saline (Sigma-Aldrich, St. Louis, MO, USA). The diluted blood was slowly and carefully pipetted onto an equal volume of Histopaque®-1077 (Sigma-Aldrich, St. Louis, MO, USA). The entire process was carried out at room temperature. Subsequently, centrifugation was performed at 700 × g with the slowest acceleration and deceleration for 20 min at 20 °C. The resulting PBMCs ring was aspirated and centrifuged at 450 × g for 10 min at 20 °C with normal acceleration and deceleration. The cells were washed twice with RPMI 1640 medium with GlutaMAX (Gibco by Thermo Fisher Scientific, Waltham, MA, USA). After the second wash and centrifugation, the cells were diluted with cultivation medium RPMI 1640 with GlutaMAX supplemented with 20% inactivated fetal bovine serum (both Gibco by Thermo Fisher Scientific, Waltham, MA, USA) and 1% antibiotic solution of penicillin, 10 000 IU ml^−1 and streptomycin, 10 mg ml^−1 (Sigma-Aldrich, St. Louis, MO, USA). At the end, the cells were counted using Türk's solution.
PBMCs were plated into 96-well plates at a cell density of approximately 5 × 10^4 cells per well in a volume of 100 μl. Cells were treated with tested compounds in concentrations of 10, 20, 50, 100, 200, 500, and 1000 μM to determine the optimal non-toxic concentration for each. Cells were incubated for 48 h in a humidified atmosphere with 5% CO2 at 37 °C. 20 μl of MTS – CellTiter 96® AQueous One Solution Cell Proliferation Assay (Promega, Madison, WI, USA) was added to each well 4 h before spectrometric analysis. Cell viability was then determined by measuring absorbance at 490 nm using the Synergy H1 instrument by BioTek. The absorbance of the cell-free culture medium was used as a blank and subtracted from the absorbance readings obtained during the experiment. The viability of untreated control cells was set as 100%.

[4] = WST-1 proliferation assay, MOLT-4; format: cell-based; conditions: human, MOLT-4 cells (acute lymphoblastic leukemia), vs 0.1% DMSO control = 100%, mean ± standard deviation
Description: as §1, §2

[5] = WST-1 proliferation assay, MCF-7; format: cell-based; conditions: human, MCF-7 cells (breast adenocarcinoma), vs 0.1% DMSO control = 100%, mean ± standard deviation
Description: as §1, §2

[6] = MOLT-4, representative histogram Fig. 5A (2 Gy alone 26 %), read-out: Viable (annexin V/PI negative) MOLT-4 cells, compound + 2 Gy
[7] = MOLT-4, representative histogram Fig. 6A (2 Gy alone 27 %), read-out: Viable (annexin V/PI negative) MOLT-4 cells, compound + 2 Gy
[8] = MOLT-4, light or radiation study, annexin V/PI negative cells, read-out: Viability rate of MOLT-4 cells relative to 2 Gy irradiation alone (100%)
[9] = peripheral blood mononuclear cells (PBMCs)
[10] = MOLT-4, annexin V/PI negative cells, read-out: Viable MOLT-4 cells relative to 2 Gy radiation alone (100%)

| SMILES | viability at 48 h, 100 µM [1] | viability at 48 h, 100 µM [2] | viability at 100 µM (MOLT-4 cells; [6]) | viability at 200 µM (MOLT-4 cells; [7]) | viability at 48 h, 100 µM [3] | viability at 48 h, 10 µM (in vitro) | viability at 48 h, 20 µM (in vitro) | viability at 48 h, 50 µM (in vitro) | viability at 48 h, 100 µM (in vitro) | viability at 48 h, 200 µM (in vitro) | viability at 48 h, 500 µM (in vitro) | viability at 48 h, 100 µM [4] | viability at 48 h, 100 µM [5] | viability at 100 µM (MOLT-4 cells; [8]) | viability at 48 h, 1000 µM (in vitro) | further results |
| --- | --- | --- | --- | --- | --- | --- | --- | --- | --- | --- | --- | --- | --- | --- | --- | --- |
| NCCCNCCS [WR1065, reference compound] | 20 ± 2% | 3% | 19% | 9% | 1% | 57 ± 39% | 47 ± 34% | 19 ± 17% | 16 ± 14% | 21 ± 8% | 27 ± 9% | 3 ± 3% | 2% | – | – | Radioprotective effect in MOLT-4 cells (in words) (MOLT-4 cells; 100 μM and 200 μM): did not exhibit distinct radioprotective effects |
| NCCCNCCSP(=O)(O)O [WR2721, amifostine, reference compound] | 27 ± 3% | 5% | 28% | 22% | 10 ± 12% | – | – | – | – | – | – | 71 ± 21% | 7 ± 2% | 106% | – | viability at 48 h, 10 µM (in vitro; [9]): 93 ± 17%; viability at 48 h, 20 µM (in vitro; [9]): 75 ± 30%; viability at 48 h, 50 µM (in vitro; [9]): 37 ± 9%; viability at 48 h, 100 µM (in vitro; [9]): 33 ± 12%; viability at 48 h, 200 µM (in vitro; [9]): 35 ± 17%; viability at 48 h, 500 µM (in vitro; [9]): 37 ± 20% |
| OCCN1CCN(CC(O)COc2cccc(Cl)c2)CC1 (stereo not shown) [Compound 6, 1-(4-(2-Hydroxyethyl)piperazin-1-yl)-3-(3-chlorophenoxy)propan-2-ol] | 85 ± 7% | 99 ± 11% | 37% | 39% | 89 ± 5% | 94 ± 12% | 96 ± 5% | 99 ± 4% | 99 ± 7% | 96 ± 6% | 94 ± 7% | 89 ± 16% | 86 ± 12% | 135% | 51 ± 4% | viability at 200 µM (MOLT-4 cells; [10]): 137% |
| COc1ccc(OCC(O)CN2CCN(CCO)CC2)c([N+](=O)[O-])c1 (stereo not shown) [Compound 2, 1-(4-(2-Hydroxyethyl)piperazin-1-yl)-3-(4-methoxy-2-nitrophenoxy)propan-2-ol] | 103 ± 3% | 111 ± 11% | 35% | 36% | 98 ± 3% | 102 ± 12% | 100 ± 11% | 99 ± 6% | 98 ± 8% | 99 ± 11% | 93 ± 3% | 90 ± 7% | 97 ± 8% | – | 78 ± 4% | – |
| O=[N+]([O-])c1cc(OCC(O)CN2CCN(CCO)CC2)ccc1Cl (stereo not shown) [Compound 5, 1-(4-(2-Hydroxyethyl)piperazin-1-yl)-3-(4-chloro-3-nitrophenoxy)propan-2-ol] | 95 ± 6% | 109 ± 9% | 32% | 30% | 85 ± 3% | 121 ± 25% | 99 ± 8% | 111 ± 7% | 102 ± 9% | 107 ± 5% | 79 ± 3% | 84 ± 8% | 104 ± 11% | – | 44 ± 11% | – |
| OCCN1CCN(CC(O)COc2ccc(F)cc2)CC1 (stereo not shown) [Compound 4, 1-(4-(2-Hydroxyethyl)piperazin-1-yl)-3-(4-fluorophenoxy)propan-2-ol] | 99 ± 3% | 112 ± 14% | 35% | 37% | 100 ± 3% | 104 ± 18% | 103 ± 26% | 112 ± 30% | 107 ± 30% | 110 ± 33% | 110 ± 28% | 102 ± 16% | 102 ± 5% | 143% | 105 ± 10% | viability at 200 µM (MOLT-4 cells; [10]): 145%; viability at 48 h, 2000 µM (in vitro): 53 ± 5%; viability at 48 h, 5000 µM (in vitro): 39 ± 5% |
| O=[N+]([O-])c1ccc(OCC(O)CN2CCN(CCO)CC2)c(F)c1 (stereo not shown) [Compound 3, 1-(4-(2-Hydroxyethyl)piperazin-1-yl)-3-(2-fluoro-4-nitrophenoxy)propan-2-ol] | 94 ± 9% | 106 ± 11% | 31% | 35% | 92 ± 4% | 98 ± 5% | 95 ± 14% | 90 ± 9% | 92 ± 6% | 92 ± 5% | 92 ± 9% | 84 ± 11% | 91 ± 12% | – | 81 ± 11% | – |
| COc1cc([N+](=O)[O-])ccc1OCC(O)CN1CCN(CCO)CC1 (stereo not shown) [Compound 1, 1-(4-(2-Hydroxyethyl)piperazin-1-yl)-3-(2-methoxy-4-nitrophenoxy)propan-2-ol] | 141 ± 42% | 112 ± 8% | 35% | 36% | 91 ± 2% | 114 ± 14% | 110 ± 11% | 111 ± 15% | 101 ± 17% | 102 ± 21% | 97 ± 22% | 92 ± 8% | 100 ± 9% | – | 60 ± 10% | – |
